Reference: patent US12383511B2, “Osteogenic agents and uses thereof” (GoldPorp Pharma Limited, priority 2022, dated 2025)

How the values were obtained:
Format in all cases: cell-based
[1] = tested on: MC3T3-E1 osteoblasts; assay: Alkaline phosphatase (ALP) activity assay in MC3T3-E1 osteoblasts; conditions: for effect of antagonist on F4-induced ALP activity: 5 μM F4
Procedure: MC3T3-E1 (passage 4-10) was maintained in Minimal Essential Media (MEM) supplemented with 10% FBS, 1 mM Sodium Pyruvate and 1% 100 ug/ml penicillin-streptomycin (100 U/ml). All reagents are from GIBCO Life Technologies.
MC3T3-E1 cells were seeded at 1×10^5 cells per well in 24-well plate. […] After treatment, cells were washed twice with PBS and lysed with buffer contains 50 mM Tris pH7.4 and 0.1% Triton X-100. After 3 freeze-thaw cycles, 40 ul of cell lysate was mixed with 50 ul of 2× Assay buffer (2-Amino-2methyl-1-propanol, pH 10.4 with 4 mM MgCl2) and 10 ul of 0.1M 4-Nitrophenyl phosphate. Incubated in 37° C. and recorded at OD410.

[2] = tested on: MC3T3-E1 osteoblast; assay: mRNA expression of osteogenesis-related molecules by real-time PCR; conditions: for AFT6 mRNA expression / ALP mRNA expression / ATF3 mRNA expression / Axin2 mRNA expression / BMP2 mRNA expression / BMP7 mRNA expression / BSP mRNA expression / COL1A1 mRNA expression / Fzd1 mRNA expression / Fzd2 mRNA expression / Fzd5 mRNA expression / LRP5 mRNA expression / OCN mRNA expression / OPN mRNA expression / OSN mRNA expression / OSX mRNA expression / Runx2 mRNA expression / VDR mRNA expression / Wnt3A mRNA expression / Wnt5A mRNA expression / Wnt7B mRNA expression / Wnt11 mRNA expression: BMP2 30 ng/ml, ASC 400 μM + β-GP 5 mM, F1 5 μM, F4 5 μM, relative to DMSO control, normalized to GAPDH
Procedure: MC3T3-E1 cells were seeded in 6-well plates at 1×10^5 cells per well for 2 days. […] Total RNA was isolated at Day 2 and Day 4 with Trizol® reagent, 1 ug of total RNA was subjected to reverse transcription/cDNA synthesis using Superscript III first-strand synthesis system (Life Technologies).
Equal amount of cDNA generated from reverse transcription reactions were subjected to real-time PCR with SYBR® Green PCR Master Mix and primers for osteoblast differentiation markers. Primers used included: […]
Osteoblast differentiation markers genes expression were analyzed by ABI prism 7900HT Sequence Detection System and the relative level of transcript expression was quantified by ΔΔCt method.

[3] = tested on: MC3T3-E1 osteoblast cells; assay: Osteoblast mineralization assay (Alizarin Red staining); conditions: for calcium deposition at higher vs lower concentration: 5 μM compared with […]
Procedure: MC3T3-E1 cells were seeded at 1×10^5 cells per well in 24-well plates. […] […] Cells were washed twice with PBS and fixed with 10% formalin for 1 hour. Fixed cell was washed twice with distilled water and stained with 2% Alizarin Red S solution (pH 4.1) in the dark for 1 hour. Stain solution was removed and washed 4 times with distilled water.

[4] = tested on: MC3T3-E1 osteoblasts; assay: Cell viability / cell number NBB assay
Procedure: MC3T3-E1 cells were seeded at 7×10^3 cells/well in 96-well plates for 2 days. […] After treatment, cells were fixed with 3% formalin and stained with NBB solution (0.05% NBB with 0.1 M sodium acetate and 9% acetic acid) at room temperature. Twenty four hours later, staining solution was removed and distilled water was added to remove free dye. Then, 100 ul of 50 mM […] was added to dissolve bound dye and recorded absorbance at 590 nm.

[5] = tested on: MDA-MB-231 cells; assay: BrdU incorporation proliferation assay; conditions: 5 μM
[6] = tested on: MCF7 cells; assay: BrdU incorporation proliferation assay
Source text: The effect of F compounds on estrogen dependent cancer cells was investigated (FIG. 8). […] The fold increase of MCF7 proliferation was similar to that induced by estradiol treatment.

[7] = tested on: estrogen responsive gene elements (ERE); assay: pERE-Luc reporter gene assay in MC3T3-E1; conditions: ICI182780 10 nM and 1 μM
Procedure: MC3T3-E1 were seeded at 9.0×10^4 per well in 24-well plates. Twenty-four hours after cell seeding, cells were transiently transfected with 500 ng pERE-Luc (contains three repeats of estrogen-response element) by lipofectamine 2000 (Life Technologies) according to manufacturers' instruction (lipofectamine:DNA=3:1).

[8] = tested on: p38; assay: Western blot of phosphorylated p38 and total p38; conditions: with 5 μM F4, 15 and 30 min, MC3T3-E1 osteoblasts
Procedure: MC3T3-E1 were lysed with 20 mM Tris pH8.0, 137 mM NaCl, 2 mM EDTA, 1% Triton X-100 and 10% Glycerol with protease inhibitor cocktail (Roche, complete). Protein concentration was determined by Bradford Protein Assay (Bio-Rad) and equal amount of proteins (30 μg) was resolved by SDS-PAGE and transferred onto PVDF membrane. The membrane was blocked with 3% BSA in Tris-buffered saline containing 0.1% Tween 20 and incubated with primary antibody (1:1000) overnight at 4° C. then incubated with HRP-linked secondary antibody for 1 h. Chemiluminescence signals were detected using enhanced chemiluminescence reagents (GE Healthcare) on X-Ray films (Fujifilm).
The levels of phosphorylated p38 and total p38 were determined by immunoblotting experiments.

C=Cc1cc(O)c(C)c2c1-c1ccc(O)c(C)c1CC2 [F1]
cellular alkaline phosphatase (ALP) enzyme activities ([1]; 0.5, 1.5, 5 μM): increased the cellular alkaline phosphatase (ALP) enzyme activities in a concentration-dependent manner
concentration at which increases in ALP activities were already evident ([1]; at 24 and 48 h after treatment): 0.5 µM
concentration of maximum increase in ALP activities ([1]; at 24 and 48 h after treatment): 5 µM
AFT6 mRNA expression ([2]; D 2): 1.5 fold
ALP mRNA expression ([2]; D 2): 1.8 fold
ATF3 mRNA expression ([2]; D 2): 0.8 fold
Axin2 mRNA expression ([2]; D 2): 0.9 fold
BMP2 mRNA expression ([2]; D 2): 1.2 fold
BMP7 mRNA expression ([2]; D 2): 1.6 fold
BSP mRNA expression ([2]; D 2): 2.1 fold
COL1A1 mRNA expression ([2]; D 2): 0.7 fold
Fzd1 mRNA expression ([2]; D 2): 3.0 fold
Fzd2 mRNA expression ([2]; D 2): 1.0 fold
Fzd5 mRNA expression ([2]; D 2): 0.8 fold
LRP5 mRNA expression ([2]; D 2): 0.8 fold
OCN mRNA expression ([2]; D 2): 29 fold
OPN mRNA expression ([2]; D 2): 1.4 fold
OSN mRNA expression ([2]; D 2): 0.7 fold
OSX mRNA expression ([2]; D 2): 0.6 fold
Runx2 mRNA expression ([2]; D 2): 1.1 fold
VDR mRNA expression ([2]; D 2): 0.9 fold
Wnt3A mRNA expression ([2]; D 2): 0.9 fold
Wnt5A mRNA expression ([2]; D 2): 0.8 fold
Wnt7B mRNA expression ([2]; D 2): 0.8 fold
Wnt11 mRNA expression ([2]; D 2): 1.1 fold
AFT6 mRNA expression ([2]; D 4): 1.0 fold
ALP mRNA expression ([2]; D 4): 2.9 fold
ATF3 mRNA expression ([2]; D 4): 1.0 fold
Axin2 mRNA expression ([2]; D 4): 1.0 fold
BMP2 mRNA expression ([2]; D 4): 0.7 fold
BMP7 mRNA expression ([2]; D 4): 1.1 fold
BSP mRNA expression ([2]; D 4): 1.3 fold
COL1A1 mRNA expression ([2]; D 4): 0.9 fold
Fzd1 mRNA expression ([2]; D 4): 2.6 fold
Fzd2 mRNA expression ([2]; D 4): 0.7 fold
Fzd5 mRNA expression ([2]; D 4): 0.6 fold
LRP5 mRNA expression ([2]; D 4): 0.6 fold
OCN mRNA expression ([2]; D 4): 11 fold
OPN mRNA expression ([2]; D 4): 1.8 fold
OSN mRNA expression ([2]; D 4): 1.6 fold
OSX mRNA expression ([2]; D 4): 0.5 fold
Runx2 mRNA expression ([2]; D 4): 1.2 fold
VDR mRNA expression ([2]; D 4): 0.5 fold
Wnt3A mRNA expression ([2]; D 4): 2.8 fold
Wnt5A mRNA expression ([2]; D 4): 0.6 fold
Wnt7B mRNA expression ([2]; D 4): 1.1 fold
Wnt11 mRNA expression ([2]; D 4): 0.6 fold
levels of osteocalcin (OCN) and osteoportin (OPN) mRNA ([2]; treatment of cells with F1 or F4): markedly increased
calcium deposition at higher vs lower concentration [3]: More calcium deposition
Alizarin Red staining (calcium deposition) in cell layers ([3]; […] or 5 μM in osteoblast mineralization medium, day 14, compared with control): significantly enhanced
cell number (NBB assay) ([4]; 0.625 to 10 μM): slightly increased the cell number
cell viability (NBB assay) ([4]; higher concentrations (25-100 μM)): significant loss of cell viability

C=Cc1cc(O)cc2ccc3c(C)c(O)ccc3c12 [F5, dehydroeffusol]
cell proliferation induced by 17beta-estradiol in MDA-MB-231 cells (ER negative) [5]: had no effect
calcium deposition at higher vs lower concentration [3]: More calcium deposition
MCF7 cell proliferation induced by estradiol ([6]; 5 μM): significantly suppress
MCF7 cell proliferation ([6]; dose of 5 μM or higher): inhibited the proliferation
MCF7 cell proliferation ([6]; low dose of 0.3 μM): induced MCF7 cell proliferation

C[C@]12CC[C@@H]3c4ccc(O)cc4C[C@@H](CCCCCCCCC[S+]([O-])CCCC(F)(F)C(F)(F)F)[C@H]3[C@@H]1CC[C@@H]2O (stereo partly drawn) [ICI182780, reference compound]
effect of antagonist on F4-induced ALP activity ([1]; day 4): no effect
effect of antagonist on F4-induced ALP activity ([1]; day 7): inhibited
effect of antagonist on F4-stimulated ERE promoter activity ([7]; 5 μM F4): could be inhibited
effect of antagonist on estradiol-stimulated ERE-driven promoter activity [7]: inhibited

C[S+]([O-])c1ccc(-c2nc(-c3ccncc3)c(-c3ccc(F)cc3)[nH]2)cc1 (stereo not drawn) [SB203580, reference compound]
effect of MAP kinase inhibitor on F4-induced increases in ALP activity ([1]; with 5 μM F4, 2 days): significantly inhibited
levels of phosphorylated p38 in F4-treated cells on addition of inhibitor [8]: reduced the levels of phosphorylated p38
